The values below come from US20230312643A1, “PEPTIDE DERIVATIVE WITH COLLAGENASE INHIBITORY ACTIVITY, AND USE THEREOF” (SUNMARINE BIOTECH, priority 2020, published 2023).

Molecules are shown by their SMILES.

Data set [1] is described as follows: HaCaT cytotoxicity test (MTS cell viability). Particulars: human, HaCaT cells (skin epidermal cells). The class given is cell-based. As for the experimental part: HaCaT cells, skin epidermal cells (derived from human), were used. The medium was DMEM low (SH30021.01, HyClone™, Logan, UT, USA) medium containing 10% fetal bovine serum (FBS, Lonza, Valais, Switzerland) medium. The cell lines were cultured in an incubator adjusted to 95% humidity, 5% CO2 and 37° C., and at this time, a medium antibiotic (Penicillin streptomycin, Gibco, Calif., USA) was used to suppress contamination or proliferation of microorganisms. When the cells covered the dish about 80%, the cells were washed with phosphated-buffered saline-EDTA (PBS-EDTA), and then the cells attached to the bottom of the dish were detached by treating with 1 ml of 0.05% trypsin EDTA, and subjected to subculture. The medium was exchanged every 48 hours to culture the cells.
Cell viability was measured using MTS (CellTiter 96® AQueous One Solution Cell Proliferation Assay, Promega, USA) reagent. The cells were divided at a concentration of 1×10^4 cells/well in a 96-well plate and then stabilized for 24 hours in an incubator controlled to 95% humidity, 5% CO2 and 37° C. After that, the samples were treated for each concentration (table 1) and cultured for 24 hours in an incubator controlled to 95% humidity, 5% CO2 and 37° C. After the medium was removed, 9 ml of medium (DMEM low, free FBS) was added to 1 ml of the reagent and diluted, and then 100 ul of the diluted solution was treated per well. After the reaction at 37° C. for 60 minutes, absorbance was measured at 490 nm with microplate reader (Molecular Devices, VersaMax ELISA Microplate Reader, USA). Cell viability was represented by absorbance of a sample-treated group compared to a control group not treated with the sample.

Data set [2] can be described thus: HS68 cytotoxicity test (MTS cell viability). The class given is cell-based. Particulars: human, HS68 cells (skin fibroblasts). How it is done: Skin fibroblast HS68 cells were used. The medium was DMEM high glucose (SH30243.01, HyClone™, Logan, UT, USA) medium containing 10% fetal bovine serum (FBS, Lonza, Valais, Switzerland) medium. The cell lines were cultured in an incubator adjusted to 95% humidity, 5% CO2 and 37° C., and at this time, a medium antibiotic (Penicillin streptomycin, Gibco, Calif., USA) was used to suppress contamination or proliferation of microorganisms.
Cell viability was measured using MTS (CellTiter 96® AQueous One Solution Cell Proliferation Assay, Promega, USA) reagent. The cells were divided at a concentration of 1×10^4 cells/well in a 96-well plate and then stabilized for 24 hours in an incubator controlled to 95% humidity, 5% CO2 and 37° C. After that, the samples were treated for each concentration and cultured for 24 hours in an incubator controlled to 95% j humidity, 5% CO2 and 37° C. After the medium was removed, 9 ml of medium (DMEM high, free FBS) was added to 1 ml of the reagent and diluted, and then 100 ul of the diluted solution was treated per well. After the reaction at 37° C. for 60 minutes, absorbance was measured at 490 nm with microplate reader (Molecular Devices, VersaMax ELISA Microplate Reader, USA). Cell viability was represented by absorbance of a sample-treated group compared to a control group not treated with the sample.

Another data set has as its target T1, elastase (Sus scrofa, UniProt P00772).
T1 construct: purchased Invitrogen
The data set is described as follows: Elastase inhibitory activity (EnzChek Elastase Assay Kit, DQ elastin). The class given is biochemical. As for the experimental part: Elastase inhibitory activity was performed by purchasing EnzChek® Elastase Assay Kit (600 Assays) reagent from Invitrogen. First, DQ elastin stock solution (1 mg/ml) was prepared by adding 1.0 ml of DDW to 1 mg DQ elastin vial. The 18 ml of DDW was added to 2 ml of 10× reaction buffer, so as to dilute reaction buffer. Then, an elastase enzyme reagent was prepared, and diluted with reaction buffer to a final concentration of 0.2 U/ml as working solution. Three samples of 50 ? each were prepared in a 96-well plate. The 50 ? of reaction buffer was added to 50 ? of DQ elastin and sample blank, and 50 ? of working solution was added to a sample, which were then left in a light-blocked state at room temperature for about one hour, and then fluorescence intensity was measured at excitation wavelength 505 nm and emission wavelength 515 nm using ELISA plate reader (VICTOR X3™, PerkinElmer, US).
Copper peptide (Comparative Example 12) and EGCg (Comparative Example 13), which is widely used as a raw material for functional cosmetics, were prepared at the same concentration and used as a positive control.
EGCg (epigallocatechin gallate) is a kind of polyphenol, which is an extract of green tea leaves, and is used as a cosmetic raw material for anti-oxidation, inflammation reduction, and wrinkle alleviation, and Copper peptide is used as a raw material for promoting wound healing, strengthening skin elasticity, and increasing subcutaneous fat layer to suppress skin aging due to excellent skin regeneration ability.

The target in another data set is T2, MMP1 protein (pdb1cgl) (Homo sapiens, UniProt P03956).
T2 sequence (P03956 101-269 limits assumed): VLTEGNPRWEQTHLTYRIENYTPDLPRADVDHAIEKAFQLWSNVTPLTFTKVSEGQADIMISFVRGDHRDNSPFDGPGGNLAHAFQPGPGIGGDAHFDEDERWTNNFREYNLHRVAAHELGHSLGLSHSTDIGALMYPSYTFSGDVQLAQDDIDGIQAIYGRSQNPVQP
In words: Molecular docking (SYBYL-X 2.1.1, Surflex-Dock 2.7) of binding affinity to collagenase. Particulars: from Surflex-Dock total score. As for the experimental part: Molecular modeling was conducted through a computer simulation program.
Target structure: MMP1 protein (pdb1cgl)
Software: SYBYL-X 2.1.1, Surflex-Dock2.7
Through a computer simulation program, a study was conducted on how to promote collagenase enzyme inhibitory activity and percutaneous absorption during peptide modification.
Total score is a value indicating the degree of binding affinity of a docked structure including a crash and a polar interaction in the unit of pKd, and the larger the value, the higher the binding affinity. And, the similarity is a value comparing the similarity with the structure already bonded to the 1cgl, and means that the closer to 1, the more similar. The result of such docking means that the addition of an appropriate modification residue through a docking simulation of computer chemistry may increase the binding affinity and similarity.
However, when compared with the overall consensus score, a binding affinity similar to or higher than that of pdb1cgl_ligand may be expected, particularly in the modified GPN and PGN, too.

T1 sequence (P00772 27-266): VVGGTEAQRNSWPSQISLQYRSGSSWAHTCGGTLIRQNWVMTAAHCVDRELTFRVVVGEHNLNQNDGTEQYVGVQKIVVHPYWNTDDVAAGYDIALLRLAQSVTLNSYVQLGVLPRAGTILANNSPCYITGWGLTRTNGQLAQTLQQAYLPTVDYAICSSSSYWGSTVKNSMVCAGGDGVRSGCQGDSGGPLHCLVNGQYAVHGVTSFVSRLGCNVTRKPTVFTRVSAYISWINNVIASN

Take `NC(=O)C[C@H](NC(=O)CNC(=O)[C@@H]1CCCN1)C(=O)O` [PGN, Pro-Gly-Asn, reference compound]: the viability at 24 h, 1 µg/mL is 118 ± 3.1% in data set [1] (1 μg/ml) and 104 ± 3.9% in data set [2] (HS68, 1 μg/ml). Besides, the viability at 24 h, 10 µg/mL in data set [1] (10 μg/ml) stood at 129 ± 2.8%; in data set [2] (HS68, 10 μg/ml), 117 ± 11.5%. The viability at 24 h, 50 µg/mL in data set [1] (50 μg/ml) turned out to be 125 ± 7.6%; in data set [2] (HS68, 50 μg/ml), 128 ± 2.2%. The viability at 24 h, 100 µg/mL was found to be 128 ± 4.1% in data set [1] (100 μg/ml) and 130.1 ± 0.1% in data set [2] (HS68, 100 μg/ml). Moreover, the inhibition at 20 µg/mL against elastase (0.02 mg/ml) was determined as 1.8 ± 0.6%. The same compound showed an inhibition at 40 µg/mL at elastase (0.04 mg/ml) of 2.8 ± 1.2%. The inhibition at 60 µg/mL on elastase (0.06 mg/ml) came out at 6.1 ± 1.9%. Also, on elastase (0.1 mg/ml), 100 µg/mL produced 7.5 ± 3.2% inhibition. The compound further showed an inhibition at 1000 µg/mL on elastase (1 mg/ml) of 7.5%. In addition, inhibition against elastase (FIGS. 8 and 9) was half-maximal at 384 µM (IC50). Also, on MMP1 protein (pdb1cgl), the “binding affinity compared to 1cgl ligand” value is ~61.5%.
